Measured values: US12630565B2, “DNA-dependent protein kinase inhibitor” (DIZAL (JIANGSU) PHARMACEUTICAL CO., LTD., priority 2019, dated 2026)

How the values were obtained:
[1] = system: MDR1, BCRP; assay: MDCKII-MDR1-BCRP efflux assay; assay type: in vitro ADME; conditions: dog, pH 7.4, 5 μM compound, HBSS pH 7.4, read-out: MDCK-Mdr1-BCRP efflux ratio
Description: The apical-to-basolateral (A-B) and basolateral-to-apical (B-A) transport of compound in HBSS (25 mM HEPES, pH 7.4) was measured across MDCKII-MDR1-BCRP cell monolayers. Incubations were performed at approximately 37° C. for 120 min, with functionality of the test system being confirmed using 5 μM digoxin as a positive control substrate. Transport of 5 μM compound and control compound were determined by quantifying substrate concentration in the incubation medium of donor compartment at the beginning of the incubation period, and both donor and receiver compartments at the end of the incubation period. The data was used to calculate the apparent permeability (Papp). All incubations were performed in triplicate and integrity of the cell monolayers was confirmed using the marker Lucifer yellow.
The permeability coefficient Pexact (cm/s) was calculated using the equation: […]
The Pexact ratio was calculated using the equation: […]
The efflux ratio was calculated using the equation: […]
Where dCr/dt is the cumulative concentration of compound in the receiver chamber as a function of time (μM/s); Vr is the solution volume in the receiver chamber (0.1 mL on the apical side, 0.3 mL on the basolateral side); A is the surface area for the transport, i.e. 0.11 cm2 for the area of the monolayer; CO is the initial concentration in the donor chamber (μM).

[2] = system: Rat hepatocyte; assay: Metabolic stability assay (rat hepatocyte Clint); assay type: in vitro ADME; conditions: 1 μM compound, cryopreserved hepatocytes 1 million cells per mL
Description: Viability of cryopreserved hepatocytes was determined using trypan blue and the cell conc. was adjusted to […] with buffer. 1 μM compound (in Acetonitrile; 0.01% DMSO) was incubated with 250 μL of hepatocytecells (1 million cells per mL) in a 96 deep well plate. Reaction was stopped at different time points (0, 0.5, 5, 15, 30, 45, 60, 80, 100 and 120 min) by addition of 3 volumes of chilled acetonitrile to 20 μL of reaction mixture and centrifuged at 4° C. for 15 min. 40 μL of supernatant was diluted to 200 μL with pure water and analyzed using LC-MS/MS.
In vitro hepatocyte clearance was estimated based on determination of elimination half-life (T1/2) of compounds disappearance from their initial concentrations. Peak area ratios of each compound (test or control) to IS was calculated. Drug elimination rate constant k (min−1), T1/2 (min), and in vitro intrinsic clearance CLint (μL/min/E6) was calculated according to the following equations: […]
Where Chep (cells×μL^−1) is the cell concentration in the incubation system.

[3] = Metabolic stability assay (human microsomal Clint); assay type: in vitro ADME; conditions: human, pooled human liver microsomes, pH 7.4, 1 μM compound, 1 mg/mL microsomes, 1 mM NADPH, 37° C.
Description: 1 μM compound was incubated with 1 mg/mL of microsomes (Pooled HLM with 20 mg/ml protein cone) at 37° C. in 250 μL of buffer (100 mM phosphate buffer, pH-7.4) containing 1 mM NADPH solution. 20 μL of incubation mix was quenched with 5 volumes chilled acetonitrile at different time points 0, 0.5, 5, 10, 15, 20 and 30 min in a fresh 96 well plate. The quench plate was centrifuged at 4000 rpm for 15 min. 40 μL of supernatant was diluted to 200 μL with pure water and analyzed using LC-MS/MS.
In vitro intrinsic clearance of the drugs in the microsome CLint (μl/min/mg) was calculated in the similar manner as the CLint in the hepatocyte.

[4] = biological target: Full length human DNAPK protein (Homo sapiens, UniProt P78527); assay: DNA-PK enzymatic assay (TR-FRET); assay type: biochemical; conditions: 10 μM ATP, 1.6 μM peptide substrate

Q: With Cc1cc2ncnn2cc1Nc1ncc2c(C)nn([C@H]3C[C@H](C)C3)c2n1 [Example 39, 3-methyl-N-(7-methyl-[1,2,4]triazolo[1,5-a]pyridin-6-yl)-1-((1r,3r)-3-methylcyclobutyl)-1H-pyrazolo[3,4-d]pyrimidin-6-amine] as the compound, how does the efflux ratio at 120 min, 5 μM [1] read?
A: 0.9

Q: And the “Rat hepatocyte CLint (μl/min/10^−6 cells)” value (from here on “Rat hepatocyte CLint”) [2]?
A: 153.3 μl/min/10^−6 cells

Q: What about the microsomal CLint at 1 μM [3] of the same compound?
A: 151 µL/min/mg

Q: What about the IC50 [4] of the same compound?
A: 2.1 nM

Q: Which efflux ratio at 120 min, 5 μM [1] does the source give for COC(C)Cn1nc(C)c2cnc(Nc3cn4ncnc4cc3C)nc21 (racemic) [Example 69, 1-(2-methoxypropyl)-3-methyl-N-(7-methyl-[1,2,4]triazolo[1,5-a]pyridin-6-yl)-1H-pyrazolo[3,4-d]pyrimidin-6-amine] here?
A: 3

Q: And the “Rat hepatocyte CLint” value [2]?
A: 6.3 μl/min/10^−6 cells

Q: What about the microsomal CLint at 1 μM [3] of the same compound?
A: 13.6 µL/min/mg

Q: And the IC50 [4]?
A: 8.8 nM

Q: What does the source list for COCCCn1nc(C)c2cnc(Nc3cn4ncnc4cc3C)nc21 [Example 65, 1-(3-methoxypropyl)-3-methyl-N-(7-methyl-[1,2,4]triazolo[1,5-a]pyridin-6-yl)-1H-pyrazolo[3,4-d]pyrimidin-6-amine]?
A: efflux ratio at 120 min, 5 μM [1]: 2; Rat hepatocyte CLint (μl/min/10^−6 cells) [2]: 13.3 μl/min/10^−6 cells; microsomal CLint at 1 μM [3]: 17.1 µL/min/mg; IC50 [4]: 8 nM

Q: Which efflux ratio at 120 min, 5 μM [1] does the source give for Cc1cc2ncnn2cc1Nc1ncc2c(n1)c(C1CCC(F)(F)CC1)nn2C [Example 9, 3-(4,4-difluorocyclohexyl)-1-methyl-N-(7-methyl-[1,2,4]triazolo[1,5-a]pyridin-6-yl)-1H-pyrazolo[4,3-d]pyrimidin-5-amine] here?
A: 1.3

Q: And the “Rat hepatocyte CLint” value [2]?
A: 11.3 μl/min/10^−6 cells

Q: And the microsomal CLint at 1 μM [3]?
A: 135 µL/min/mg

Q: What about the IC50 [4] of the same compound?
A: 0.7 nM

Q: Which efflux ratio at 120 min, 5 μM [1] does the source give for Cc1cc2ncnn2cc1Nc1ncc2c(C)nn(C3CCC(OC(F)F)CC3)c2n1 (centres unmarked) [Example 23, 1-(4-(difluoromethoxy)cyclohexyl)-3-methyl-N-(7-methyl-[1,2,4]triazolo[1,5-a]pyridin-6-yl)-1H-pyrazolo[3,4-d]pyrimidin-6-amine] here?
A: 0.9

Q: And the “Rat hepatocyte CLint” value [2]?
A: 21.2 μl/min/10^−6 cells

Q: And the microsomal CLint at 1 μM [3]?
A: 115 µL/min/mg

Q: What about the IC50 [4] of the same compound?
A: 0.7 nM

Q: What does the source list for Cc1cc2ncnn2cc1Nc1ncc2c(C)nn(C(C)C)c2n1 [Example 59, 1-isopropyl-3-methyl-N-(7-methyl-[1,2,4]triazolo[1,5-a]pyridin-6-yl)-1H-pyrazolo[3,4-d]pyrimidin-6-amine]?
A: efflux ratio at 120 min, 5 μM [1]: 0.7; Rat hepatocyte CLint (μl/min/10^−6 cells) [2]: 5.5 μl/min/10^−6 cells; microsomal CLint at 1 μM [3]: 20.2 µL/min/mg; IC50 [4]: 4.5 nM

Q: Which efflux ratio at 120 min, 5 μM [1] does the source give for Cc1cc2ncnn2cc1Nc1ncc2c(C)nn(C3CCOC3)c2n1 (single isomer, unassigned) [Example 48, 3-methyl-N-(7-methyl-[1,2,4]triazolo[1,5-a]pyridin-6-yl)-1-(tetrahydrofuran-3-yl)-1H-pyrazolo[3,4-d]pyrimidin-6-amine] here?
A: 3.6

Q: What about the “Rat hepatocyte CLint” value [2] of the same compound?
A: <1 μl/min/10^−6 cells

Q: What about the microsomal CLint at 1 μM [3] of the same compound?
A: 11.1 µL/min/mg

Q: And the IC50 [4]?
A: 1.8 nM

Q: With Cc1cc2ncnn2cc1Nc1ncc2c(C)nn(C3CCOCC3C)c2n1 (single isomer, unassigned) [Example 112, 3-methyl-N-(7-methyl-[1,2,4]triazolo[1,5-a]pyridin-6-yl)-1-(3-methyltetrahydro-2H-pyran-4-yl)-1H-pyrazolo[3,4-d]pyrimidin-6-amine] as the compound, how does the efflux ratio at 120 min, 5 μM [1] read?
A: 3.5

Q: What about the “Rat hepatocyte CLint” value [2] of the same compound?
A: 7.8 μl/min/10^−6 cells

Q: What about the microsomal CLint at 1 μM [3] of the same compound?
A: 47 µL/min/mg

Q: And the IC50 [4]?
A: 3.7 nM

Q: Which efflux ratio at 120 min, 5 μM [1] does the source give for Cc1cc2ncnn2cc1Nc1ncc2c(C)nn(CC3CCOC3)c2n1 (single isomer, unassigned) [Example 52, 3-methyl-N-(7-methyl-[1,2,4]triazolo[1,5-a]pyridin-6-yl)-1-((tetrahydrofuran-3-yl)methyl)-1H-pyrazolo[3,4-d]pyrimidin-6-amine] here?
A: 3.2

Q: And the “Rat hepatocyte CLint” value [2]?
A: 4.9 μl/min/10^−6 cells

Q: And the microsomal CLint at 1 μM [3]?
A: 14.1 µL/min/mg

Q: And the IC50 [4]?
A: 10.8 nM

Q: For Cc1cc2ncnn2cc1Nc1ncc2c(C(F)(F)F)nn(C3CCOCC3)c2n1 [Example 17, N-(7-methyl-[1,2,4]triazolo[1,5-a]pyridin-6-yl)-1-(tetrahydro-2H-pyran-4-yl)-3-(trifluoromethyl)-1H-pyrazolo[3,4-d]pyrimidin-6-amine], which efflux ratio at 120 min, 5 μM [1] is on record?
A: 1.5

Q: What about the “Rat hepatocyte CLint” value [2] of the same compound?
A: 7.2 μl/min/10^−6 cells

Q: What about the microsomal CLint at 1 μM [3] of the same compound?
A: 54.7 µL/min/mg

Q: What about the IC50 [4] of the same compound?
A: 5.2 nM

Q: Which efflux ratio at 120 min, 5 μM [1] does the source give for COc1cc(C)c(Nc2ncc3c(C)nn(C4CCOCC4)c3n2)cn1 [Example 89, N-(6-methoxy-4-methylpyridin-3-yl)-3-methyl-1-(tetrahydro-2H-pyran-4-yl)-1H-pyrazolo[3,4-d]pyrimidin-6-amine] here?
A: 0.8

Q: And the “Rat hepatocyte CLint” value [2]?
A: 9.6 μl/min/10^−6 cells

Q: And the microsomal CLint at 1 μM [3]?
A: 10.1 µL/min/mg

Q: And the IC50 [4]?
A: 6.2 nM

Q: For Cc1cc2ncnn2cc1Nc1ncc2c(C)cn(C3CCOCC3)c2n1 [Example 15, 7-methyl-N-(5-methyl-7-(tetrahydro-2H-pyran-4-yl)-7H-pyrrolo[2,3-d]pyrimidin-2-yl)-[1,2,4]triazolo[1,5-a]pyridin-6-amine], which efflux ratio at 120 min, 5 μM [1] is on record?
A: 0.8

Q: And the “Rat hepatocyte CLint” value [2]?
A: 14.6 μl/min/10^−6 cells

Q: And the microsomal CLint at 1 μM [3]?
A: 69.6 µL/min/mg

Q: What about the IC50 [4] of the same compound?
A: 35.2 nM

Q: Which efflux ratio at 120 min, 5 μM [1] does the source give for Cc1cc2nccn2cc1Nc1ncc2c(C)nn(CC(C)C#N)c2n1 (centres unmarked) [Example 80, 2-methyl-3-(3-methyl-6-((7-methylimidazo[1,2-a]pyridin-6-yl)amino)-1H-pyrazolo[3,4-d]pyrimidin-1-yl)propanenitrile] here?
A: 19

Q: And the “Rat hepatocyte CLint” value [2]?
A: 9.3 μl/min/10^−6 cells

Q: And the microsomal CLint at 1 μM [3]?
A: 23.5 µL/min/mg

Q: What about the IC50 [4] of the same compound?
A: 2.1 nM

Q: For Cc1cc2ncnn2cc1Nc1ncc2c(C)nn(C3CCOC(C)C3)c2n1 (single isomer, unassigned) [Example 35, 3-methyl-N-(7-methyl-[1,2,4]triazolo[1,5-a]pyridin-6-yl)-1-(2-methyltetrahydro-2H-pyran-4-yl)-1H-pyrazolo[3,4-d]pyrimidin-6-amine], which efflux ratio at 120 min, 5 μM [1] is on record?
A: 1.7

Q: And the “Rat hepatocyte CLint” value [2]?
A: 21.7 μl/min/10^−6 cells

Q: And the microsomal CLint at 1 μM [3]?
A: 55.4 µL/min/mg

Q: And the IC50 [4]?
A: 2.8 nM

Q: With Cc1cc2ncnn2cc1Nc1ncc2c(n1)c([C@H]1CC[C@H](OC(F)F)CC1)nn2C [Example 12, 3-((1r,4r)-4-(difluoromethoxy)cyclohexyl)-1-methyl-N-(7-methyl-[1,2,4]triazolo[1,5-a]pyridin-6-yl)-1H-pyrazolo[4,3-d]pyrimidin-5-amine] as the compound, how does the efflux ratio at 120 min, 5 μM [1] read?
A: 2.1

Q: What about the “Rat hepatocyte CLint” value [2] of the same compound?
A: 70.3 μl/min/10^−6 cells

Q: And the microsomal CLint at 1 μM [3]?
A: 109 µL/min/mg

Q: And the IC50 [4]?
A: 1.1 nM

Q: What does the source list for Cc1cc2ncnn2cc1Nc1ncc2c(C)nn(CCCC(F)(F)F)c2n1 [Example 58, 3-methyl-N-(7-methyl-[1,2,4]triazolo[1,5-a]pyridin-6-yl)-1-(4,4,4-trifluorobutyl)-1H-pyrazolo[3,4-d]pyrimidin-6-amine]?
A: efflux ratio at 120 min, 5 μM [1]: 1.9; Rat hepatocyte CLint (μl/min/10^−6 cells) [2]: 32.9 μl/min/10^−6 cells; microsomal CLint at 1 μM [3]: 70.8 µL/min/mg; IC50 [4]: 2.2 nM

Q: Which efflux ratio at 120 min, 5 μM [1] does the source give for Cc1cc2ncnn2cc1Nc1ncc2c(C)nn(C3CCOCC3)c2n1 [Example 13, 3-methyl-N-(7-methyl-[1,2,4]triazolo[1,5-a]pyridin-6-yl)-1-(tetrahydro-2H-pyran-4-yl)-1H-pyrazolo[3,4-d]pyrimidin-6-amine] here?
A: 2.8

Q: And the “Rat hepatocyte CLint” value [2]?
A: <1 μl/min/10^−6 cells

Q: What about the microsomal CLint at 1 μM [3] of the same compound?
A: 12.9 µL/min/mg

Q: What about the IC50 [4] of the same compound?
A: 3.9 nM
